# From the supplement of paper PMC10307832
# Legend:
# Test in all cases: relative viability (nuclei count vs DMSO), 5 days (fraction); higher = more cells survive
# [1] = compound: C(C(=O)C(=O)O)Br [Bromopyruvate] + C[C@@H](Oc1cc(-c2cnn(C3CCNCC3)c2)cnc1N)c1c(Cl)ccc(F)c1Cl [Crizotinib] (partner 1 µM)
# Procedure, shortened: (§1)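 After 5 days of treatment, lung cancer cells in 1536-well plates were fixed and stained in a single step (final 0.05% Triton X-100, 1% formaldehyde, 1 ug/ml Hoechst) and their nuclei counted on 4× images. Treatment had been applied by pin tool the day after seeding as one drug alone or as a fixed anchor-drug dose with five library-drug doses (not always all listed) in √10 steps. Relative viability is the nuclei count of treated wells divided by that of vehicle wells, and values are medians of duplicate plates.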
# [2] = compound: CC(O)(CS(=O)(=O)c1ccc(F)cc1)C(=O)Nc1ccc(C#N)c(C(F)(F)F)c1 [Bicalutamide] + CC(=O)Nc1cccc(-n2c(=O)n(C3CC3)c(=O)c3c(Nc4ccc(I)cc4F)n(C)c(=O)c(C)c32)c1 [Trametinib] (partner 0.02 µM)
# Procedure, shortened: as §1
# [3] = compound: CC(O)(CS(=O)(=O)c1ccc(F)cc1)C(=O)Nc1ccc(C#N)c(C(F)(F)F)c1 [Bicalutamide] + CC(=O)c1c(C)c2cnc(Nc3ccc(N4CCNCC4)cn3)nc2n(C2CCCC2)c1=O [Palbociclib] (partner 0.5 µM)
# Procedure, shortened: as §1
# [4] = compound: CC(O)(CS(=O)(=O)c1ccc(F)cc1)C(=O)Nc1ccc(C#N)c(C(F)(F)F)c1 [Bicalutamide] + O=C(CCCCCCC(=O)Nc1ccccc1)NO [Vorinostat] (partner 1 µM)
# Procedure, shortened: as §1
cell line,measurement,setting,value
UMC-11,relative viability,[1]; first compound 1 µM,0.727
same,relative viability,[1]; first compound 3.162 µM,0.655
same,relative viability,[1]; first compound 10 µM,0.505
same,relative viability,[1]; first compound 31.62 µM,0.509
same,relative viability,[1]; first compound 100 µM,0.52
same,relative viability,[2]; first compound 0.08 µM,0.771
same,relative viability,[2]; first compound 0.253 µM,0.572
same,relative viability,[2]; first compound 0.8 µM,0.808
same,relative viability,[2]; first compound 2.53 µM,0.686
same,relative viability,[3]; first compound 0.08 µM,0.34
same,relative viability,[3]; first compound 0.253 µM,0.367
same,relative viability,[3]; first compound 0.8 µM,0.319
same,relative viability,[3]; first compound 2.53 µM,0.347
same,relative viability,[4]; first compound 0.08 µM,0.436
same,relative viability,[4]; first compound 0.253 µM,0.387
same,relative viability,[4]; first compound 0.8 µM,0.403
same,relative viability,[4]; first compound 2.53 µM,0.264
